Here are results for 13 compounds from ChEMBL document CHEMBL2396566, “Development of a novel class of pyrrolo-[1,2,5]benzothiadiazepine derivatives as potential anti-schistosomal agents” (2013).

Assay type in all cases: functional
For assay [1], the system named is Schistosoma japonicum. Briefly: Antiparasitic activity against Schistosoma japonicum assessed as worm survival at 50 uM incubated for 16 hrs measured after 24 hrs.
Assay [2] concerns Schistosoma japonicum. The assay is described as follows: Antiparasitic activity against Schistosoma japonicum assessed as worm survival at 50 uM incubated for 16 hrs measured after 48 hrs.
In assay [3] the test system is Schistosoma japonicum. The assay is described as follows: Antiparasitic activity against Schistosoma japonicum assessed as worm survival at 50 uM incubated for 16 hrs measured after 72 hrs.
In assay [4] the test system is Schistosoma japonicum. Briefly: Antiparasitic activity against Schistosoma japonicum adult worm infected in ICR mouse assessed as worm reduction at 200 mg/kg, po administered for 3 days measured after 21 days. Also on record: scale not given: the % may be the effect or the level left.

As for `O=C(O)C1Nc2ccccc2S(=O)(=O)n2cccc21` (configuration not stated), the survival at 50 µM in the assay with Schistosoma japonicum [1], in the assay with Schistosoma japonicum [2] and in the assay with Schistosoma japonicum [3] was 100% each time.

Consider `O=C(C1CCCCC1)N1CC(=O)N2CCc3ccccc3C2C1` (configuration not stated) [PRAZIQUANTEL], for which the Activity in the assay with Schistosoma japonicum [4] is reported as 96.9%. Further, the survival at 50 µM in the assay on Schistosoma japonicum [1] was 66.7%; in the assay with Schistosoma japonicum [2] it was 33.3%; with Schistosoma japonicum [3] it was 33.3%.

For the compound `CCOC(=O)C1Nc2ccccc2N(C)n2cccc21` (configuration not stated), the Activity with Schistosoma japonicum [4] worked out at 34.8%. The values for the survival at 50 µM with Schistosoma japonicum [1], with Schistosoma japonicum [2] and in the assay with Schistosoma japonicum [3] were 100%, 100% and 83.3%, respectively.

For the compound `CCOC(=O)C1Nc2ccccc2S(=O)(=O)n2cccc21` (configuration not stated), the survival at 50 µM with Schistosoma japonicum [1], in the assay on Schistosoma japonicum [2] and in the assay on Schistosoma japonicum [3] was 100% each time.

For `CCOC(=O)C1Nc2ccccc2Nn2cccc21` (configuration not stated), the survival at 50 µM with Schistosoma japonicum [1], in the assay on Schistosoma japonicum [2] and in the assay with Schistosoma japonicum [3] was 100% in each case.

In the case of `CCOC(=O)C1Nc2ccccc2Sn2cccc21` (configuration not stated), the Activity with Schistosoma japonicum [4] is listed as 4.5%. Moreover, the survival at 50 µM in the assay with Schistosoma japonicum [1] was found to be 100%; in the assay with Schistosoma japonicum [2] it was 66.7%; in the assay with Schistosoma japonicum [3], 16.7%.

Take `CCOC(=O)C1Nc2ccccc2Cn2cccc21` (configuration not stated): the Activity in the assay on Schistosoma japonicum [4] was 74.2%. For the same compound, the values for the survival at 50 µM in the assay with Schistosoma japonicum [1], in the assay on Schistosoma japonicum [2] and in the assay with Schistosoma japonicum [3] were 100%, 100% and 83.3%, respectively.

On to `CC1=Nc2ccccc2N(C)n2cccc21`, for which the Activity in the assay on Schistosoma japonicum [4] stood at 24.2%. Moreover, the survival at 50 µM in the assay on Schistosoma japonicum [1] was 100%; in the assay with Schistosoma japonicum [2], 100%; with Schistosoma japonicum [3], 83.3%.

On to `CCOC(=O)C1Nc2ccccc2Sn2c(Br)ccc21` (configuration not stated), for which, in the assay on Schistosoma japonicum [4], the Activity was 12%. Moreover, the survival at 50 µM was 100% with Schistosoma japonicum [1], 100% in the assay with Schistosoma japonicum [2] and 66.7% in the assay on Schistosoma japonicum [3].

Take `O=C1Nc2ccccc2Sn2cccc21`: the survival at 50 µM with Schistosoma japonicum [1], in the assay with Schistosoma japonicum [2] and in the assay with Schistosoma japonicum [3] was 100% throughout.

As for `CCOC(=O)C1Nc2ccccc2[S+]([O-])n2cccc21` (configuration not stated), the survival at 50 µM in the assay on Schistosoma japonicum [1], with Schistosoma japonicum [2] and with Schistosoma japonicum [3] was 100% each time.

For `CCOC(=O)C1Nc2ccccc2Sn2c(Cl)ccc21` (configuration not stated), the Activity in the assay on Schistosoma japonicum [4] is 51.5%. Moreover, the survival at 50 µM in the assay on Schistosoma japonicum [1] was found to be 100%; with Schistosoma japonicum [2] it was 83.3%; with Schistosoma japonicum [3] it was 33.3%.

Regarding `CN1c2ccccc2N=Cc2cccn21`, the Activity with Schistosoma japonicum [4] was 6.1%. The survival at 50 µM in the assay with Schistosoma japonicum [1] came out at 100%; in the assay with Schistosoma japonicum [2] it was 100%; in the assay with Schistosoma japonicum [3] it was 83.3%.
